Tests used:
Type in all cases: in vivo, mouse
adiponectin = experiment: Experiment 2: high-fat diet with first compounds, plasma adiponectin ELISA; details: high-fat diet 9 weeks, untreated = 100%, lysine 6.45%, OBS 4.3%, SPC 4.3% of food; for Plasma Adiponectin, Females: female mice; for Plasma Adiponectin, Males: male mice
Procedure: (§1) Food and water were provided ad libitum.
(§2) Body mass and food consumption were monitored once a week for sixteen weeks. Prior to blood collection, animals were fasted for 4 hours to establish a physiological baseline. Blood was then collected from the retro-orbital plexus and processed using EDTA-K2-coated blood collection tubes (Milian Dutscher Group; Geneva, Switzerland). The resulting plasma was frozen and stored at −80° C. until used for analysis. A portion of each blood sample was used for blood glucose determination using an Abbott Freestyle Lite glucometer and glucose strips (Abbott Diabetes Care, Inc.; Alameda, Calif.). At the end of each study, animals were fasted and bled, as described above. The mice were then sacrificed, their overall body condition was assessed, and certain physiological parameters were measured. The inguinal and perigonadal fat pads, as well as liver of each mouse, were harvested by surgical resection, weighed, flash frozen, and stored at −80° C.
(§3) Enzyme-linked immunosorbent assay (ELISA) kits were obtained commercially and used to measure plasma levels of IGF-1 (R&D Systems; Minneapolis, Minn.), adiponectin (R&D Systems), FGF-21 (Millipore Corp.; Billerica, Mass.), leptin (R&D Systems), growth hormone (Millipore Corp.), and insulin (ALPCO Diagnostics; Salem, N.H.). Tests were performed according to the manufacturers' recommendations and measured using a Molecular Devices SpectraMax M5 Microplate Reader (Molecular Devices LLC; San Jose, Calif.). Two technical replicates were performed for each sample and the statistical significance of the resulting values determined by unpaired two-tailed t-tests using the software package Prism 8 (Graph-Pad Software; La Jolla, Calif.).

plasma glucose = experiment: Experiment 2: high-fat diet with first compounds, plasma glucose; details: for Plasma Glucose, Females / Plasma Glucose, Males: high-fat diet 9 weeks, untreated = 100%, lysine 6.45%, OBS 4.3%, SPC 4.3% of food; for Plasma Glucose, Males: male mice
Procedure: as §1, §2

FGF-21 = experiment: Experiment 2: high-fat diet with first compounds, plasma FGF-21 ELISA; details: female mice, high-fat diet 9 weeks, untreated = 100%; lysine 6.45%, OBS 4.3%, SPC 4.3% of food
Procedure: as §1, §2, §3

insulin = experiment: Experiment 2: high-fat diet with first compounds, plasma insulin ELISA; details: for Plasma Insulin, Females / Plasma Insulin, Males: high-fat diet 9 weeks, untreated = 100%, lysine 6.45%, OBS 4.3%, SPC 4.3% of food; for Plasma Insulin, Males: male mice
Procedure: as §1, §2, §3

IGF-1 = experiment: Experiment 2: high-fat diet with first compounds, plasma IGF-1 ELISA; details: for Plasma IGF-1, Females / Plasma IGF-1, Males: high-fat diet 9 weeks, untreated = 100%, lysine 6.45%, OBS 4.3%, SPC 4.3% of food; for Plasma IGF-1, Males: male mice
Procedure: as §1, §2, §3

leptin = experiment: Experiment 2: high-fat diet with first compounds, plasma leptin ELISA; details: for Plasma Leptin, Females / Plasma Leptin, Males: high-fat diet 9 weeks, untreated = 100%, lysine 6.45%, OBS 4.3%, SPC 4.3% of food; for Plasma Leptin, Males: male mice
Procedure: as §1, §2, §3

C57BL/6J mice = experiment: Experiment 2: high-fat diet with first compounds, body mass and inguinal/perigonadal fat pad mass; details: for Total Body Mass, Females / Inguinal Fat Mass, Females / Perigonadal Fat Mass, Females / Total Body Mass, Males / Inguinal Fat Mass, Males / Perigonadal Fat Mass, Males: high-fat diet 9 weeks, untreated = 100%, lysine 6.45%; for Total Body Mass, Females / Total Body Mass, Males: O-benzyl serine 4.3%, S-phenyl cysteine 4.3% of food; for Inguinal Fat Mass, Females / Perigonadal Fat Mass, Females / Inguinal Fat Mass, Males / Perigonadal Fat Mass, Males: OBS 4.3%, SPC 4.3% of food; for Total Body Mass, Males / Inguinal Fat Mass, Males / Perigonadal Fat Mass, Males: male mice; for Total Body Mass, Males: tryptophan dose not given
Procedure: as §1
as §2, with “Prior” for “Body mass and food consumption were monitored once a week for sixteen weeks. Prior”

[1] = female mice, 4.3% S-phenyl cysteine, high-fat diet, 9 week interval
[2] = female mice, 4.3% S-phenyl cysteine, high-fat diet, 9 week interval, p<0.001 vs untreated

| Compound | Plasma Adiponectin, Females (adiponectin) [%] | Plasma Adiponectin, Males (adiponectin) [%] | Plasma Glucose, Females (plasma glucose; female mice) [%] | Plasma Glucose, Males (plasma glucose) [%] | Plasma FGF-21, Females (FGF-21) [%] | Plasma Insulin, Females (insulin; female mice) [%] | Plasma Insulin, Males (insulin) [%] | Plasma IGF-1, Females (IGF-1; female mice) [%] | Plasma IGF-1, Males (IGF-1) [%] | Plasma Leptin, Females (leptin; female mice) [%] | Plasma Leptin, Males (leptin) [%] | Total Body Mass, Females (C57BL/6J mice; female mice) [%] | Inguinal Fat Mass, Females (C57BL/6J mice; female mice) [%] | Perigonadal Fat Mass, Females (C57BL/6J mice; female mice) [%] | Total Body Mass, Males (C57BL/6J mice) [%] | Inguinal Fat Mass, Males (C57BL/6J mice) [%] | Perigonadal Fat Mass, Males (C57BL/6J mice) [%] | further results |
| --- | --- | --- | --- | --- | --- | --- | --- | --- | --- | --- | --- | --- | --- | --- | --- | --- | --- | --- |
| N[C@@H](CSc1ccccc1)C(=O)O [S-Phenyl-Cysteine, S-phenyl cysteine] | 100 | 213 | 71 | 70 | 181 | 32 | 25 | 72 | 66 | 16 | 11 | 71 | 23 | 25 | 87 | 44 | 35 | plasma glucose level over time (FIG. 7A) (plasma glucose; female mice, 4.3% S-phenyl cysteine, high-fat diet, 9 week interval, more efficacious than methionine restriction): maintenance of low plasma glucose; plasma insulin level over time (FIG. 7B) (insulin; [1]): maintenance of low insulin levels; plasma IGF-1 level over time (FIG. 8A) (IGF-1; [1]): sustained reductions of plasma IGF-1 levels; plasma leptin level over time (FIG. 8B) (leptin; [1]): maintenance of low plasma leptin levels; accumulation of inguinal and perigonadal adipose tissue (FIGS. 6A, 6B) (C57BL/6J mice; [2]): robust protection against the accumulation of adipose tissue; total weight gain (FIG. 5) (C57BL/6J mice; [2]): robust prevention of total weight gain |
| N[C@@H](COCc1ccccc1)C(=O)O [O-Benzyl-Serine, O-benzyl serine] | 106 | 108 | 71 | 93 | 280 | 37 | 28 | 79 | 72 | 20 | 12 | 69 | 27 | 25 | 89 | 42 | 31 |  |
